Assays:
sensory evaluation team = test: Saltiness threshold analysis by triangle test method; assay type: in vivo; details: serial 1:1 dilution from 1.0 mg/mL; for saltiness threshold: NaCl as positive control
Procedure: The threshold analysis was conducted by triangle test method. […] A mass concentration of the penultimate solution was recorded as the salinity threshold for the synthetic peptide.

[1] = Electronic tongue saltiness measurement of peptide / NaCl solutions
Procedure: In order to understand the flavor characteristics of DIQPEER synthetic peptide solutions of different concentrations in NaCl solutions of different concentrations, 0.5 g/L, 1.0 g/L, 1.5 g/L, and 2.0 g/L DIQPEER synthetic peptide aqueous solutions were added into 3.5 g/L, 3.0 g/L, 2.5 g/L, and 2.0 g/L NaCl solutions, respectively, for electronic tongue measurement.
As the concentration of synthetic peptides increased, the concentration of NaCl solution decreased and the saltiness enhancing effect weakened. Without affecting the overall solution taste, DIQPEER could replace about 50% of NaCl compared to the saltiness value of 4.0 g/L NaCl solution.

Compound | saltiness threshold (sensory evaluation team) [mM] | saltiness intensity of peptide aqueous solutions ([1]; 0.5, 1.0, 1.5 and 2.0 g/L DIQPEER, FIG. 7) | salinity of the solution (synergy with NaCl) ([1]; 1.0 g/L synthetic peptide added to 3.0 g/L NaCl solution, FIG. 8) | saltiness enhancement (increase of saltiness value) ([1]; 1.0 g/L synthetic peptide added to 3.0 g/L NaCl solution, compared with saltiness value of 4.0 g/L NaCl solution) [%] | share of NaCl that can be replaced ([1]; compared to the saltiness value of 4.0 g/L NaCl solution) | Threshold (sensory evaluation team; saltiness threshold) [mmol/L]
[Cl-].[Na+] [NaCl, reference compound] | 1.07 | – | – | – | – | –
DIQPEER | 0.282 | saltiness intensity increased with the increase of the concentration | increased significantly | 69.59 | about 50% | 0.282
